# Reference: PMC4579270, “Identification and Characterization of an Irreversible Inhibitor of CDK2” (Chemistry & Biology, 2015)
# What was measured:
# Assay in all cases: Dundee protein kinase screen
# Format in all cases: biochemical
# MPSK1 = MPSK1 (Homo sapiens, UniProt O75716); settings: MPSK1, 1µM; read-out: %Remaining activity at 1µM NU6300
# Method: (§1) Prior to determining its cellular activity, we carried out a screen to assess its selectivity against a panel of 131 protein kinases under conditions that would not distinguish between a reversible or irreversible mode of action. […] These 13 kinases and 29 additional kinases, selected for their known sensitivity to other inhibitors within the purine series, were then tested in a modified screening format in which the assay was repeated following a 4-hr pre-incubation (Table S3B). […] However, conformational flexibility around the active site may promote such an interaction with a residue from another part of the structure ([Martin et al., 2012]).
# (§2) Table S3, Related to Figure 4. NCL-0006300 protein kinase selectivity. (A) NU6300 was tested at a single concentration of 1µM against 131 protein kinases present in a Dundee protein kinase screen (Bain et al., 2007). Values given are % activity remaining and are the average of duplicate measurements: 0-25% (red), 26-50% (yellow), 51-80% […]
# (§3) (black) and above 81% (green). […]
# NEK2a = NEK2a (Homo sapiens, UniProt P51955); settings: read-out: %Remaining activity at 1µM NU6300
# Method: as §1, §2, §3
# NUAK1 = molecular target: T1, NUAK1 (Homo sapiens, UniProt O60285); settings: NUAK1, 1µM; read-out: %Remaining activity at 1µM NU6300
# T1 sequence (O60285 1-661): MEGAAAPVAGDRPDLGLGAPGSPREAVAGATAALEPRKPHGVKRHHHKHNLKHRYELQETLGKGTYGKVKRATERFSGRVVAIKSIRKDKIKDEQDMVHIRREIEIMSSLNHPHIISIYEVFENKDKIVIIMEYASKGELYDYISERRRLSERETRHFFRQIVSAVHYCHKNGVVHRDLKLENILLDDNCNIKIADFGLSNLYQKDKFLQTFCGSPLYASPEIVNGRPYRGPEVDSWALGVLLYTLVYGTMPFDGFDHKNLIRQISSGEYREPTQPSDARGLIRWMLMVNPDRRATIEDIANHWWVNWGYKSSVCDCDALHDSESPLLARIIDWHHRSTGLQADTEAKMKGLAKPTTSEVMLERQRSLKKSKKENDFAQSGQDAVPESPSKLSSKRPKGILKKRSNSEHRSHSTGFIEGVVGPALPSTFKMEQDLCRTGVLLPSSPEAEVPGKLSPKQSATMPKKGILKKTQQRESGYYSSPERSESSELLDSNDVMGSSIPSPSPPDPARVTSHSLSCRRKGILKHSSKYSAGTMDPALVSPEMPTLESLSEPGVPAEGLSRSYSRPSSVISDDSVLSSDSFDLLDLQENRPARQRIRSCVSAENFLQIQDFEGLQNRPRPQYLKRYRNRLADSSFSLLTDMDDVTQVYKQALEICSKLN
# Method: as §1, §2, §3
# OSR1 = OSR1 (Homo sapiens, UniProt O95747); settings: OSR1, 1µM; read-out: %Remaining activity at 1µM NU6300
# Method: as §1, §2, §3
# PAK5 = PAK5 (Homo sapiens, UniProt Q9P286); settings: PAK5, 1µM; read-out: %Remaining activity at 1µM NU6300
# Method: as §1, §2, §3
# PHK = tested on: PHK
# Method: as §1, §2, §3
# PIM1 = PIM1 (Homo sapiens, UniProt P11309); settings: PIM1, 1µM; read-out: %Remaining activity at 1µM NU6300
# Method: as §1, §2, §3
# PIM2 = PIM2 (Homo sapiens, UniProt Q9P1W9); settings: PIM2, 1µM; read-out: %Remaining activity at 1µM NU6300
# Method: as §1, §2, §3
# PLK1 = PLK1 (Homo sapiens, UniProt P53350); settings: PLK1, 1µM; read-out: %Remaining activity at 1µM NU6300
# Method: as §1, §2, §3
# SRPK1 = SRPK1 (Homo sapiens, UniProt Q96SB4); settings: SRPK1, 1µM; read-out: %Remaining activity at 1µM NU6300
# Method: as §1, §2, §3
# STK33 = STK33 (Homo sapiens, UniProt Q9BYT3); settings: STK33, 1µM; read-out: %Remaining activity at 1µM NU6300
# Method: as §1, §2, §3
# SYK = SYK (Homo sapiens, UniProt P43405); settings: read-out: %Remaining activity at 1µM NU6300
# Method: as §1, §2, §3
# Src = Src (Homo sapiens, UniProt P12931); settings: read-out: %Remaining activity at 1µM NU6300
# Method: as §1, §2, §3
# TBK1 = molecular target: T2, TBK1 (Homo sapiens, UniProt Q9UHD2); settings: TBK1, 1µM; read-out: %Remaining activity at 1µM NU6300
# T2 sequence (Q9UHD2 1-729): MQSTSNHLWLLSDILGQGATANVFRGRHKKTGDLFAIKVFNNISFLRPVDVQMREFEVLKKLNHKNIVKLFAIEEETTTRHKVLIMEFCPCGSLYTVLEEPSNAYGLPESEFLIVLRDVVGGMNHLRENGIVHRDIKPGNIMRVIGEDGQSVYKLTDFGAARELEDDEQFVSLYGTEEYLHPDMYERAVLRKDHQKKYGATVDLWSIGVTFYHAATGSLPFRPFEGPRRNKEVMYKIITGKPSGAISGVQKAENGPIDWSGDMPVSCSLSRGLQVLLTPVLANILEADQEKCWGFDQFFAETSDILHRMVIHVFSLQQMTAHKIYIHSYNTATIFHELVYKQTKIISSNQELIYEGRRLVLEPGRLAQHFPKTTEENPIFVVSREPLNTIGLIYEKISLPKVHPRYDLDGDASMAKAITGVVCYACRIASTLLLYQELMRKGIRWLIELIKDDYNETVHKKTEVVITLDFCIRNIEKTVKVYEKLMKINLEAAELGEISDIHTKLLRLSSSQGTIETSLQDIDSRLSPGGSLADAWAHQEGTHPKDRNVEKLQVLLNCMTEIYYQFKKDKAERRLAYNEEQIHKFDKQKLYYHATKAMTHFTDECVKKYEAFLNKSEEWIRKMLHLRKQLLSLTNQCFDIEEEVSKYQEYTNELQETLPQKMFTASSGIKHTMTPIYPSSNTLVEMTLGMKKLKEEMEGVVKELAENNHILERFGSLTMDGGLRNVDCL
# Method: as §1, §2, §3
# WNK1 = WNK1 (Homo sapiens, UniProt Q9H4A3); settings: WNK1, 1µM; read-out: %Remaining activity at 1µM NU6300
# Method: as §1, §2, §3
# OSR1, sequence (O95747 whole entry): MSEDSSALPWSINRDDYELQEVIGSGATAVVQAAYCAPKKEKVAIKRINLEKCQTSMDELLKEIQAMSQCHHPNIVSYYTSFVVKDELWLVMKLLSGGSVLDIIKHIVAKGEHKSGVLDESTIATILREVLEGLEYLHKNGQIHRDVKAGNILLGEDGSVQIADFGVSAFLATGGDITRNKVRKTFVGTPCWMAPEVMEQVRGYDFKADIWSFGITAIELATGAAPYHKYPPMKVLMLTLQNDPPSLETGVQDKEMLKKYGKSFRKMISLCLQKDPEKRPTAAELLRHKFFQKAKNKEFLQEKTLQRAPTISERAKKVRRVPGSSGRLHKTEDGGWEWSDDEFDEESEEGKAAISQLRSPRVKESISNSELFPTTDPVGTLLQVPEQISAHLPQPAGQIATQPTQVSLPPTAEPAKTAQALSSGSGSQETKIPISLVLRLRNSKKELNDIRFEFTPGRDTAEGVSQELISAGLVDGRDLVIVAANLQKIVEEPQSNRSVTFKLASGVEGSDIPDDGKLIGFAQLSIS
# NEK2a, sequence (P51955 whole entry): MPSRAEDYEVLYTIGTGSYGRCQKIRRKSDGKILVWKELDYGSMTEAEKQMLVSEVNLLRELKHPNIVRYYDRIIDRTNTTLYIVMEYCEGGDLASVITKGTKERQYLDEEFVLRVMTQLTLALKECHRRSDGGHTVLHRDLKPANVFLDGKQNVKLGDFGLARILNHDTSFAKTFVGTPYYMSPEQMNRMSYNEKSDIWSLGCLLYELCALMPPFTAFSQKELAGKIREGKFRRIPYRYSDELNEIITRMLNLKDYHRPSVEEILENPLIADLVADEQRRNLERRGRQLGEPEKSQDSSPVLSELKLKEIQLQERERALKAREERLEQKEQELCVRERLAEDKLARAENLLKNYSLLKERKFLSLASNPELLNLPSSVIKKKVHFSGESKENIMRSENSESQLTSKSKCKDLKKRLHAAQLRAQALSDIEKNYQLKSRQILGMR
# SRPK1, sequence (Q96SB4 whole entry): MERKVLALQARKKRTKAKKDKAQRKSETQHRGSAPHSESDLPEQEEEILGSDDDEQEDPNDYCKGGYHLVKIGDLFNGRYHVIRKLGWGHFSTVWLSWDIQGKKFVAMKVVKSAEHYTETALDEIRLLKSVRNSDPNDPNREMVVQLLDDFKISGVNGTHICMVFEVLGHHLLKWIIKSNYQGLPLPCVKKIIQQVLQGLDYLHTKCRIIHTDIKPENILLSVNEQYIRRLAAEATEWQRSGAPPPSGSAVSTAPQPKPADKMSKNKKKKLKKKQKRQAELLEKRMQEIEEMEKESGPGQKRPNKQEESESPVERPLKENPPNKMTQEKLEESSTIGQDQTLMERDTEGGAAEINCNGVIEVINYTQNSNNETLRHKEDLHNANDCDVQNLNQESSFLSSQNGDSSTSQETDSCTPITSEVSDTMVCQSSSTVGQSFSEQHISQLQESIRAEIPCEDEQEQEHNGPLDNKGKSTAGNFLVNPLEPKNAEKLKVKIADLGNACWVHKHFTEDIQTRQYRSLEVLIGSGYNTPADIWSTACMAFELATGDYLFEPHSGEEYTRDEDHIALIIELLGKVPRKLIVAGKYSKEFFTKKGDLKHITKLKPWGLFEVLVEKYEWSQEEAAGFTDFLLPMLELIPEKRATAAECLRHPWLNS
# PIM2, sequence (Q9P1W9 whole entry): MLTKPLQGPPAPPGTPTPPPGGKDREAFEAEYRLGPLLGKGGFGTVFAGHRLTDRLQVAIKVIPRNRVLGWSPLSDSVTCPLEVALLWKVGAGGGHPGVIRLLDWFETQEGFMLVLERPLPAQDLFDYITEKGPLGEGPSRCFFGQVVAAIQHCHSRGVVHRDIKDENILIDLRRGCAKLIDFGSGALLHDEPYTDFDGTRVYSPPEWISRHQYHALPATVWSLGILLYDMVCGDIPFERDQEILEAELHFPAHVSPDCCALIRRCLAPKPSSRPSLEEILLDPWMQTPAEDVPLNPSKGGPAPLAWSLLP
# PLK1, sequence (P53350 whole entry): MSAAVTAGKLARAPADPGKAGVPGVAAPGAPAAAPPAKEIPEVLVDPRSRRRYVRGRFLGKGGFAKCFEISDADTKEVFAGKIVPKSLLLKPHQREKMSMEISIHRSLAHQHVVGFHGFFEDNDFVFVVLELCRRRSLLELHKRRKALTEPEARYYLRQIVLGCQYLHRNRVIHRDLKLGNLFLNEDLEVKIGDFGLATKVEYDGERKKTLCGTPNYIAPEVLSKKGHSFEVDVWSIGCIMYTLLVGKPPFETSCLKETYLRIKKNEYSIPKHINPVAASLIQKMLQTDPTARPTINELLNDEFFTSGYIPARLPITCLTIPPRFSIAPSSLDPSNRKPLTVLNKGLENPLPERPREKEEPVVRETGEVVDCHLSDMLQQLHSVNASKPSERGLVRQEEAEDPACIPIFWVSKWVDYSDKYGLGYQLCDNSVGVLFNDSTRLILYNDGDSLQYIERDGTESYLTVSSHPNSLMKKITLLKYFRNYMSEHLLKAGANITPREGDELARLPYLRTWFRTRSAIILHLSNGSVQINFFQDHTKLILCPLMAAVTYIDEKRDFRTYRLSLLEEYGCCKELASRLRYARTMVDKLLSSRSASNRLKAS
# Src, sequence (P12931 whole entry): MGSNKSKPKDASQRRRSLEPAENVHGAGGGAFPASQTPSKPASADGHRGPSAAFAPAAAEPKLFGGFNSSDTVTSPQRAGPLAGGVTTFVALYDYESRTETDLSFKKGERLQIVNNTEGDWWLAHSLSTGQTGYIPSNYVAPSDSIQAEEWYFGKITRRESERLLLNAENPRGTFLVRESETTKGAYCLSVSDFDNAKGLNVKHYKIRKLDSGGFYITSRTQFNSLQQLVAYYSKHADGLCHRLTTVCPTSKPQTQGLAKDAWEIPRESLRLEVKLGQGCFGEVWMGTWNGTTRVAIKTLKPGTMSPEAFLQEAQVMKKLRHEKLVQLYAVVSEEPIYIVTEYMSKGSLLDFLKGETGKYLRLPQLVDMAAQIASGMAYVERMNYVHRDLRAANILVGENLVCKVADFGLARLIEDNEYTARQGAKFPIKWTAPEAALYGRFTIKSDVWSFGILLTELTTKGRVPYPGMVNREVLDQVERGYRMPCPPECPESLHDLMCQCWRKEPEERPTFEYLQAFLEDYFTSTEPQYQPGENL
# STK33, sequence (Q9BYT3 whole entry): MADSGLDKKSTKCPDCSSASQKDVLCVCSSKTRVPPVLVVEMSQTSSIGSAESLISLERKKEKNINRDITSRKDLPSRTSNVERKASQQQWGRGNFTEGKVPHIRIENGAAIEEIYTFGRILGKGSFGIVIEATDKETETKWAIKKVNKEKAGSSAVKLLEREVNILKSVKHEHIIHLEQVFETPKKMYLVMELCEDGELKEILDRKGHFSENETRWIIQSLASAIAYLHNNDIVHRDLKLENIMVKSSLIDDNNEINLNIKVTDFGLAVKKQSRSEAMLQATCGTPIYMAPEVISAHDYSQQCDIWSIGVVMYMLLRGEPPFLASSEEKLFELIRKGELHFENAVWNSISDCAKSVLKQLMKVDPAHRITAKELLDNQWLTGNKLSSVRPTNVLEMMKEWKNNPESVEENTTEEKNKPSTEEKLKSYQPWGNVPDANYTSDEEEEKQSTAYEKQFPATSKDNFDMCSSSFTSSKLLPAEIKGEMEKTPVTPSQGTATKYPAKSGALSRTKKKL
# MPSK1, sequence (O75716 whole entry): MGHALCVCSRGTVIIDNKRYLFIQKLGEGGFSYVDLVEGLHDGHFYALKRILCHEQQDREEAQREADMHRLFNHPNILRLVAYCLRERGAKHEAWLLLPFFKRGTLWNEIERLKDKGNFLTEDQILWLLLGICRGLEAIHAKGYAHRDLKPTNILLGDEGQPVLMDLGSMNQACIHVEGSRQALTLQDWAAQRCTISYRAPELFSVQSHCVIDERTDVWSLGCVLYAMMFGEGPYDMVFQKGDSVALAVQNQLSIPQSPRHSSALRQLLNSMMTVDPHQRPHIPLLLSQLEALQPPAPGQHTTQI
# PAK5, sequence (Q9P286 whole entry): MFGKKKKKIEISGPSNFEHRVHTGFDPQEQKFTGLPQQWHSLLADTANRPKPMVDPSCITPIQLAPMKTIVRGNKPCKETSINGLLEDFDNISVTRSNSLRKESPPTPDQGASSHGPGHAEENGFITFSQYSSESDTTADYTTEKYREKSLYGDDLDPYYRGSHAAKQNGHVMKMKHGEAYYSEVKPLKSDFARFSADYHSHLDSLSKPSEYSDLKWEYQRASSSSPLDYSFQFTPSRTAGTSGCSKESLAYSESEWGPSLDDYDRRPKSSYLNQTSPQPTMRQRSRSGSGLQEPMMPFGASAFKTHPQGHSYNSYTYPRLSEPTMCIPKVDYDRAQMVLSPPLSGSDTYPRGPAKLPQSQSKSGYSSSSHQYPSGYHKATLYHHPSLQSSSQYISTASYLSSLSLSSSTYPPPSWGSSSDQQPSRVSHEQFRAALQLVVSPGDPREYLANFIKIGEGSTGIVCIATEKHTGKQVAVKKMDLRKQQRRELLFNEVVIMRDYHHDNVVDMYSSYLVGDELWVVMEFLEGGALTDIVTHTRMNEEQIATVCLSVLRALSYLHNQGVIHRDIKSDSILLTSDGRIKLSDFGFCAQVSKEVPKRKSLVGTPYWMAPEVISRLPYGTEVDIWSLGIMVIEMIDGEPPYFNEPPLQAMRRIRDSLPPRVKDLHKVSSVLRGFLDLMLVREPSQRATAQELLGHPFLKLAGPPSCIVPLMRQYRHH
# PIM1, sequence (P11309 whole entry): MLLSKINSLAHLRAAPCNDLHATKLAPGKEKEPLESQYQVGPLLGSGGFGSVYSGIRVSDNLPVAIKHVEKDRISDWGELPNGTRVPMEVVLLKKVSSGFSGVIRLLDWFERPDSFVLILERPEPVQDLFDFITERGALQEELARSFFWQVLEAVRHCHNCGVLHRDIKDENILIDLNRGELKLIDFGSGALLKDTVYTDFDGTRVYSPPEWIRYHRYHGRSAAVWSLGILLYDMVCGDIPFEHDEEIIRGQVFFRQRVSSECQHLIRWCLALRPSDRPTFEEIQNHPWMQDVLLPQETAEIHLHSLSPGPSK
smiles,measurement,setting,value
"C=CS(=O)(=O)c1ccc(Nc2nc(OCC3CCCCC3)c3nc[nH]c3n2)cc1 [NU6300, 6-(cyclohexylmethoxy)-N-(4-(vinylsulfonyl)phenyl)-9H-purin-2-amine]",remaining activity at 1 µM,MPSK1,92%
same,remaining activity at 1 µM,NEK2a,55%
same,remaining activity at 1 µM,NUAK1,2%
same,remaining activity at 1 µM,OSR1,67%
same,remaining activity at 1 µM,PAK5,48%
same,%Remaining activity at 1µM NU6300,PHK,69%
same,remaining activity at 1 µM,PIM1,84%
same,remaining activity at 1 µM,PIM2,96%
same,remaining activity at 1 µM,PLK1,90%
same,remaining activity at 1 µM,SRPK1,71%
same,remaining activity at 1 µM,STK33,59%
same,remaining activity at 1 µM,SYK,58%
same,remaining activity at 1 µM,Src,39%
same,remaining activity at 1 µM,TBK1,45%
same,remaining activity at 1 µM,WNK1,103%
